Test results as given in US7300763B2, “Method of testing myelotoxicity with the use of flow cytometer” (Teijin Limited, priority 2000, dated 2007).

Assays:
rat bone marrow cells [1] = test: Myelotoxicity by flow cytometer analysis of cell surface antigen-expressing bone marrow cells after administration of 5-FU; assay type: in vivo; details: 50 mg/kg/day intravenously; for Number of CD45 Peak 1-expressing cells / Number of CD45 Peak 2-expressing cells / Number of CD45R-expressing cells / Number of CD71-expressing cells / Number of CD90-expressing cells: n = 3
Procedure: (1) Six-week-old male CD (SD) IGS rats purchased from Charles River Japan were used at the age of 8 weeks. During the housing period, the rats were fed with a feed for animals (Oriental Yeast Co., Ltd., CRF-1) and drinking water (well water containing 0.4% of a hypochlorite added) ad libitum. The animals were housed in metal cages (one animal per cage) and kept under conditions of a temperature of 23±1° C. and a humidity of 55±15%.
(2) The bone marrow was collected from left and right femurs. The femurs were taken out under anaethesia with pentobarbital, and both ends of the femurs were cut. The bone marrow was then flushed out with 1 mL of fetal bovine serum using a syringe with a 25G injection needle. Bone pieces or the like were removed by using a Pasteur pipette, and cells were then collected by centrifugation (3,000 rpm for 5 minutes).
(3) To 20 μL of the cells collected in (2), was added 5 mL of a phosphate-buffer-solution (PBS). Thereby, a cell suspension was obtained.
(4) To 200 μL of the cell suspension in (3), was added 2 μg of a specific antibody to the cell surface antigen. Incubation was carried out at room temperature for 45 minutes. Mouse IgG2a anti-rat CD2, mouse IgG1 anti-rat CD8, mouse IgA anti-rat CD11b, mouse IgG1 anti-rat CD45, mouse IgG2b anti-rat CD45R, mouse IgG2a anti-rat CD71 and mouse IgG2a anti-rat CD90 were used as the antibody. Mouse IgG1, mouse IgG2a, mouse IgG2b and mouse IgA were used as the isotype control antibody. All the antibodies labeled with fluorescein (FITC) (Pharmingen.) were used as the antibody.
(5) After incubation, 1 mL of Optilyse C (Beckman Coulter.) was added, and treatment was carried out for 10 minutes to hemolyze erythrocytes. After the hemolytic treatment, 1 mL of PBS was added, and incubation was carried out at room temperature for 10 minutes.
(6) Procedures of adding 1 mL of PBS to a cell precipitation obtained by centrifugation (3,000 rpm for 5 minutes) after incubation and thereby washing the cells were repeated twice.
(7) After washing, 2 mL of PBS was added to the cell precipitation to provide a cell suspension. Analysis was carried out with the use of a flow cytometer (EPICS XL-MCL, Beckman Coulter.) The analysis was conducted by following procedures described below. […] The fluorescence detector sensitivity of the flow cytometer was adjusted with the cells treated with the isotype antibody.
(§1) (2) 5-Fluorouracil (hereinafter abbreviated to 5-FU) as a chemotherapeutic agent in a dose of 50 mg/kg/day ([…], 10 mL/kg) was intravenously administered to the rats, and a physiological saline solution was used as the control substance.
(§2) The days of the experiment were indicated by the day of starting the administration as day 0. Groups for collecting the bone marrow on the day 0 and day 5 of the experiment were respectively set as groups administered with the control substance. Groups for collecting the bone marrow from day 1 to day 5 of the experiment were respectively set as groups administered with the 5-FU. The number of animals in each group was 3.
(4) Bone marrow collection, antibody treatment and analysis with the flow cytometer were carried out according to Example 1. A flow count (Beckman Coulter.) was added to the cell suspension during the flow cytometer analysis, and a calibration region was set on the cytogram of EPIS XL-MCL to make measurement. The absolute number of the respective cell surface antigen-expressing cells was calculated. Mouse IgGI anti-rat CD45, mouse IgG2b anti-rat CD45R, mouse IgG2a anti-rat CD71 and mouse IgG2a anti-rat CD90 were used as the antibody, and mouse IgG1, mouse IgG2a and mouse IgG2b were used as the isotype control antibody.
(6) The expression of cell surface antigens was measured for 15,000 bone marrow cells per individual with the use of the flow cytometer.

rat bone marrow cells [2] = test: Observation of smears of bone marrow (May-Grünwald and Giemsa staining) in rats administered with 5-FU; assay type: in vivo; design: key to Number of Cells, Erythroblasts / Number of Cells, Immature Myelocytes: —: Undetected; details: 50 mg/kg/day intravenously
Procedure: as §1, §2
(5) A part of bone marrow cells were suspended in an adequate amount of fetal bovine serum. An adequate amount of the resulting suspension was then dropped onto a slide glass, and a cover glass was obliquely applied to the droplet of the bovine fetal serum containing the bone marrow cells. The slide glass was directly moved to prepare smears (the wedge method). Each smear was subjected to May-Grünwald and Giemsa staining to carry out microscopic observation, and the ratio of the cells was calculated for each lineage and differentiation stage. After calculating the ratio, the resulting ratio was multiplied by the separately obtained number of bone marrow cells to determine the absolute number by observing the smear of each cell.
(7) Observation of smears was carried out for 500 bone marrow cells per individual (one smear).

SMILES: O=c1[nH]cc(F)c(=O)[nH]1 [5-FU, 5-Fluorouracil]
- Number of CD45 Peak 1-expressing cells (rat bone marrow cells [1]; Day 1, Mean ± SD): 1.65 ± 0.68 ×10^6/μL
- Number of CD45 Peak 2-expressing cells (rat bone marrow cells [1]; Day 1, Mean ± SD): 0.76 ± 0.32 ×10^6/μL
- Number of CD45R-expressing cells (rat bone marrow cells [1]; Day 1, Mean ± SD): 1.54 ± 0.69 ×10^6/μL
- Number of CD71-expressing cells (rat bone marrow cells [1]; Day 1, Mean ± SD): 0.46 ± 0.17 ×10^6/μL
- Number of CD90-expressing cells (rat bone marrow cells [1]; Day 1, Mean ± SD): 1.76 ± 0.79 ×10^6/μL
- Number of CD45 Peak 1-expressing cells (rat bone marrow cells [1]; Day 2, Mean ± SD): 1.20 ± 0.32 ×10^6/μL
- Number of CD45 Peak 2-expressing cells (rat bone marrow cells [1]; Day 2, Mean ± SD): 0.82 ± 0.20 ×10^6/μL
- Number of CD45R-expressing cells (rat bone marrow cells [1]; Day 2, Mean ± SD): 1.46 ± 0.27 ×10^6/μL
- Number of CD71-expressing cells (rat bone marrow cells [1]; Day 2, Mean ± SD): 0.30 ± 0.15 ×10^6/μL
- Number of CD90-expressing cells (rat bone marrow cells [1]; Day 2, Mean ± SD): 1.58 ± 0.18 ×10^6/μL
- Number of CD45 Peak 1-expressing cells (rat bone marrow cells [1]; Day 3, Mean ± SD): 0.34 ± 0.13 ×10^6/μL
- Number of CD45 Peak 2-expressing cells (rat bone marrow cells [1]; Day 3, Mean ± SD): 0.75 ± 0.25 ×10^6/μL
- Number of CD45R-expressing cells (rat bone marrow cells [1]; Day 3, Mean ± SD): 0.59 ± 0.11 ×10^6/μL
- Number of CD71-expressing cells (rat bone marrow cells [1]; Day 3, Mean ± SD): 0.09 ± 0.05 ×10^6/μL
- Number of CD90-expressing cells (rat bone marrow cells [1]; Day 3, Mean ± SD): 0.49 ± 0.10 ×10^6/μL
- Number of CD45 Peak 1-expressing cells (rat bone marrow cells [1]; Day 4, Mean ± SD): 0.05 ± 0.02 ×10^6/μL
- Number of CD45 Peak 2-expressing cells (rat bone marrow cells [1]; Day 4, Mean ± SD): 0.64 ± 0.24 ×10^6/μL
- Number of CD45R-expressing cells (rat bone marrow cells [1]; Day 4, Mean ± SD): 0.41 ± 0.12 ×10^6/μL
- Number of CD71-expressing cells (rat bone marrow cells [1]; Day 4, Mean ± SD): 0.02 ± 0.02 ×10^6/μL
- Number of CD90-expressing cells (rat bone marrow cells [1]; Day 4, Mean ± SD): 0.16 ± 0.06 ×10^6/μL
- Number of CD45 Peak 1-expressing cells (rat bone marrow cells [1]; Day 5, Mean ± SD): 0.03 ± 0.02 ×10^6/μL
- Number of CD45 Peak 2-expressing cells (rat bone marrow cells [1]; Day 5, Mean ± SD): 0.51 ± 0.06 ×10^6/μL
- Number of CD45R-expressing cells (rat bone marrow cells [1]; Day 5, Mean ± SD): 0.32 ± 0.08 ×10^6/μL
- Number of CD71-expressing cells (rat bone marrow cells [1]; Day 5, Mean ± SD): 0.02 ± 0.01 ×10^6/μL
- Number of CD90-expressing cells (rat bone marrow cells [1]; Day 5, Mean ± SD): 0.09 ± 0.02 ×10^6/μL
- Change of number of CD45 (Peak 1)-expressing cells, in words (rat bone marrow cells [1]; day 1 to day 5): began decreasing in a period between day 1 and day 2 of the experiment and was decreased to such an extent of the scarcely observed expressing cells on day 4 of the experiment
- Change of number of CD45 (Peak 2)-expressing cells, in words (rat bone marrow cells [1]; day 1 to day 5): A decrease was not observed
- Change of number of CD45R-expressing cells, in words (rat bone marrow cells [1]; day 1 to day 5): the decrease continued on day 3 of the experiment and thereafter
- Change of number of CD71-expressing cells, in words (rat bone marrow cells [1]; day 1 to day 5): decreased to such an extent of the scarcely observed expressing cells on day 3 of the experiment and thereafter
- Change of number of CD90-expressing cells, in words (rat bone marrow cells [1]; day 1 to day 5): markedly decreased on day 3 of the experiment and thereafter
- Number of Cells, Erythroblasts (rat bone marrow cells [2]; Day 1, Mean ± SD, n = 3): 0.18 ± 0.07 ×10^6/μL
- Number of Cells, Immature Myelocytes (rat bone marrow cells [2]; Day 1, Mean ± SD, n = 3): 0.20 ± 0.10 ×10^6/μL
- Number of Cells, Lymphocytes (rat bone marrow cells [2]; Day 1, Mean ± SD, n = 3): 2.01 ± 0.86 ×10^6/μL
- Number of Cells, Mature Myelocytes (rat bone marrow cells [2]; Day 1, Mean ± SD, n = 3): 0.49 ± 0.22 ×10^6/μL
- Number of Cells, Erythroblasts (rat bone marrow cells [2]; Day 2, Mean ± SD, n = 3): 0.02 ± 0.03 ×10^6/μL
- Number of Cells, Immature Myelocytes (rat bone marrow cells [2]; Day 2, Mean ± SD, n = 3): 0.09 ± 0.04 ×10^6/μL
- Number of Cells, Lymphocytes (rat bone marrow cells [2]; Day 2, Mean ± SD, n = 3): 1.46 ± 0.21 ×10^6/μL
- Number of Cells, Mature Myelocytes (rat bone marrow cells [2]; Day 2, Mean ± SD, n = 3): 0.95 ± 0.32 ×10^6/μL
- Number of Cells, Erythroblasts (rat bone marrow cells [2]; Day 3, Mean ± SD, n = 3): 0.003 ± 0.001 ×10^6/μL
- Number of Cells, Immature Myelocytes (rat bone marrow cells [2]; Day 3, Mean ± SD, n = 3): 0.003 ± 0.001 ×10^6/μL
- Number of Cells, Lymphocytes (rat bone marrow cells [2]; Day 3, Mean ± SD, n = 3): 0.62 ± 0.13 ×10^6/μL
- Number of Cells, Mature Myelocytes (rat bone marrow cells [2]; Day 3, Mean ± SD, n = 3): 0.39 ± 0.03 ×10^6/μL
- Number of Cells, Erythroblasts (rat bone marrow cells [2]; Day 4, Mean ± SD, n = 3): 0.001 ± 0.001 ×10^6/μL
- Number of Cells, Lymphocytes (rat bone marrow cells [2]; Day 4, Mean ± SD, n = 3): 0.56 ± 0.20 ×10^6/μL
- Number of Cells, Mature Myelocytes (rat bone marrow cells [2]; Day 4, Mean ± SD, n = 3): 0.12 ± 0.02 ×10^6/μL
- Number of Cells, Immature Myelocytes (rat bone marrow cells [2]; Day 4, n = 3): —
- Number of Cells, Lymphocytes (rat bone marrow cells [2]; Day 5, Mean ± SD, n = 3): 0.51 ± 0.08 ×10^6/μL
- Number of Cells, Mature Myelocytes (rat bone marrow cells [2]; Day 5, Mean ± SD, n = 3): 0.03 ± 0.01 ×10^6/μL
- Number of Cells, Erythroblasts (rat bone marrow cells [2]; Day 5, n = 3): —
- Number of Cells, Immature Myelocytes (rat bone marrow cells [2]; Day 5, n = 3): —
- Change of erythroblasts, in words (rat bone marrow cells [2]; day 1 to day 5): decreased to such an extent of the scarcely observed cells on day 3 of the experiment and thereafter
- Change of immature myelocytes, in words (rat bone marrow cells [2]; day 1 to day 5): decreased to such an extent of the scarcely observed cells on day 3 of the experiment and thereafter
- Change of lymphocytes, in words (rat bone marrow cells [2]; day 1 to day 5): decreased on day 3 of the experiment and thereafter
- Change of number of mature myelocytes, in words (rat bone marrow cells [2]; day 1 to day 5): temporarily increased from day 1 to day 3 of the experiment and then decreased on day 4 of the experiment and thereafter
